In patent publication US11453674B2, “Heterocyclic compound, preparation method and use thereof in medicine” (SUZHOU SINOVENT PHARMACEUTICALS CO., LTD., priority 2019, dated 2022):

Target: T1, OAT3 (Homo sapiens, UniProt Q8TCC7)
T1 construct: host or cells: HEK293/OAT3 (hygromycin B selection)
T1 sequence (Q8TCC7 1-542): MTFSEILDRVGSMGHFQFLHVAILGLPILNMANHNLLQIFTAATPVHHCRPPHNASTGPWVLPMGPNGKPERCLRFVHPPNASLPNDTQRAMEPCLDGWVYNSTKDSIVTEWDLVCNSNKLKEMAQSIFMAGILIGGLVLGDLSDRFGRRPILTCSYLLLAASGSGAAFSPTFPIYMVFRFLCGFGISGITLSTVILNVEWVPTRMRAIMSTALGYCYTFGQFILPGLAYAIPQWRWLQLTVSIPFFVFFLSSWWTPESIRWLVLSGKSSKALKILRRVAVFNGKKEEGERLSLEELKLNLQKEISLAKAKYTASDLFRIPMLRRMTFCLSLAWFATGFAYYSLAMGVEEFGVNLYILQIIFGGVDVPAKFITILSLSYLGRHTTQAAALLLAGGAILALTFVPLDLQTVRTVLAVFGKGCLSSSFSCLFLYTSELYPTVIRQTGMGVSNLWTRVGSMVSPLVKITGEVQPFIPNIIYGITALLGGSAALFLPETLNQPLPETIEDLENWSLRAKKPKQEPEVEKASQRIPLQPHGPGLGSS
Assay: Inhibition of 6-carboxyfluorescein uptake in HEK293/OAT3 cells
Format: cell-based
Conditions: ratio of OAT3 IC50 to hURAT1 IC50 (selectivity)
Protocol: 1. Reagents and Consumables
2. Culture Media and Solutions
Thaw medium: 90% DMEM+10% FBS+1× Pen/Strep, preserved at 4° C. for later use.
Culture medium: 90% DMEM+10% FBS+1× Pen/Strep+100 μg/mL Hygromycin B, preserved at 4° C. for later use.
5× Matrigel: 1 vial of Matrigel was thawed overnight at 4° C., then diluted to 500 mL with cold DMEM. The resulting solution was preserved at 4° C. for later use after subpackaging.
Uptake assay buffer: 487.5 mL HBSS buffer was mixed with 12.5 mL 1M HEPES, with the final HEPES concentration being 25 mM. This was prepared right before the experiment.
30 mM probenecid: 2 mg of the powder was dissolved in 233.62 μL of 100% DMSO. The resulting solution was preserved at −20° C. for later use after subpackaging.
The resulting solution was preserved at −20° C. for later use after subpackaging.
The resulting solution was preserved away from light at 4° C. for later use after subpackaging.
Envision multimode plate reader (with parameters as follows)
Emission wavelength: 590 nm
4. Experimental Procedures
The cells were quickly taken out from a liquid nitrogen tank and shaken in a water bath at 37° C. until completely thawed. The cell suspension was quickly added to a pre-heated culture medium and centrifuged at 1000 rpm for 5 min. The supernatant was discarded. A fresh pre-heated culture medium was added for resuspension. The cell suspension was transferred into a 100 mm dish and incubated at 37° C. at 5% CO2.
Typically, the cells were passaged every 2-3 days in a ratio of 1:3 to 1:5.
5× Matrigel was added to a 384-well cell plate at 5 μL/well for incubation in an incubator at 37° C. for 30 min, followed by digestion.
Cells were collected after digestion, counted, resuspended at 1×10^6 cells/mL using a culture medium, and added to a coated plate at 60 μL/well by using a Multidrop Combi to give a cell density of 6×10^4 cells/well, followed by incubating overnight at 37° C. at 5% CO2.
3) Preparation of Uptake Assay Buffer
On the day of experiment, fresh buffer was prepared as needed.
4) Preparation of Compounds (Using ECHO)
Working solutions of 11 concentrations were prepared for plotting a curve with stock solutions of 3 concentrations using PlateMap. The 3 concentrations were 30 mM, 0.3 mM, 0.003 mM, all formulated in DMSO.
5) Preparation of a Mixed Solution of 6-Carboxyfluorescein (6 μM) and Compounds
According to amount used, 6-carboxyfluorescein (1 mM) was diluted with uptake assay buffer to give a diluted 6-carboxyfluorescein solution (6 μM). […] The mixture was preserved away from light for later use. The concentration of DMSO was 2% at this time.
The cells were incubated overnight before the culture medium was carefully removed. Then 80 μL of uptake assay buffer was added to each well at room temperature for washing the cells 3 times. After washing, 20 μL of uptake assay buffer was added to each well.
The mixed solution of 6-CF (6 μM) and compounds, prepared in step 5, was transferred to a cell plate at 20 μL/well with Bravo. The mixed solution was centrifuged at 400 rpm for 1 min, and incubated away from light at room temperature for 10 min. At this time, the concentration of 6-CF became 3 μM, the concentration of the compound became the final concentration, and the concentration of DMSO became 1%.
The cells were washed 3 times with pre-cooled uptake assay buffer at 80 μL/well, to remove unbound 6-CF.
The plate was read on the Envision. The data were recorded and processed to calculate IC50.
According to the fluorescence signals of HPE and ZPE on each cell plate, the inhibition rate (%) of the compound in each well on the cell plate was calculated.
The XLfit software was used to plot the curve for calculating the IC50 values of the compounds. The IC50 value of the positive compound was also one of the criteria for controlling the quality of each experiment.

CCc1nc2ncc(Cl)cn2c1C(=O)c1cc(Br)c(O)c(Br)c1 [Example 6, (6-chloro-2-ethylimidazo[1,2-a]pyrimidin-3-yl)(3,5-dibromo-4-hydroxyphenyl)methanone]
IC50, OAT3/IC50, hURAT1: 24.8

CCc1nc2cc(C(F)(F)F)ncn2c1C(=O)c1cc(Br)c(O)c(Br)c1 [Example 7, (3,5-dibromo-4-hydroxyphenyl)(2-ethyl-7-(trifluoromethyl)imidazo[1,2-c]pyrimidin-3-yl)methanone]
IC50, OAT3/IC50, hURAT1: 3.0

CCc1nc2ncccn2c1C(=O)c1cc(Br)c(O)c(Br)c1 [Example 20, 2,6-dibromo-4-([2-ethylimidazo[1,2-a]pyrimidin-3-yl]carbonyl) phenol]
IC50, OAT3/IC50, hURAT1: 8.7

CCc1nc2ncc(F)cn2c1C(=O)c1cc(Br)c(O)c(C#N)c1 [Example 14, 3-bromo-5-(2-ethyl-6-fluoroimidazo[1,2-a]pyrimidine-3-carbonyl)-2-hydroxybenzonitrile]
IC50, OAT3/IC50, hURAT1: 3.6

CCn1nc2ccc(F)cc2c1C(=O)c1cc(Br)c(O)c(Br)c1 [Example 9, (3,5-dibromo-4-hydroxyphenyl)(2-ethyl-5-fluoro-2H-indazol-3-yl) methanone]
IC50, OAT3/IC50, hURAT1: 2.0

CCc1nc2cc(Cl)ncn2c1C(=O)c1cc(Br)c(O)c(Br)c1 [Example 21, (7-chloro-2-ethylimidazo[1,2-f]pyrimidin-3-yl)(3,5-dibromo-4-hydroxyphenyl)methanone]
IC50, OAT3/IC50, hURAT1: 5.5

CCc1nc2ncc(F)cn2c1C(=O)c1cc(Br)c(O)c(C(F)(F)F)c1 [Example 18, (3-bromo-4-hydroxy-5-(trifluoromethyl)phenyl)(2-ethyl-6-fluoroimidazo[1,2-a]pyrimidin-3-yl)methanone]
IC50, OAT3/IC50, hURAT1: 16.2

CCc1nc2ncc(C(F)(F)F)cn2c1C(=O)c1cc(Br)c(O)c(Br)c1 [Example 5, (3,5-dibromo-4-hydroxyphenyl)(2-ethyl-6-(trifluoromethyl)imidazo[1,2-a]pyrimidin-3-yl)methanone]
IC50, OAT3/IC50, hURAT1: 21.1

CCc1nc2ncccn2c1C(=O)c1cc(Br)c(O)c(C#N)c1 [Example 22, 3-bromo-5-(2-ethylimidazo[1,2-a]pyrimidine-3-carbonyl)-2-hydroxybenzonitrile]
IC50, OAT3/IC50, hURAT1: 1.4

CCc1nc2ncccn2c1C(=O)c1cc(Br)c(O)c(C(F)(F)F)c1 [Example 23, (3-bromo-4-hydroxy-5-(trifluoromethyl)phenyl)(2-ethylimidazo[1,2-a]pyrimidin-3-yl)methanone]
IC50, OAT3/IC50, hURAT1: 10.3

CCc1nc2ncc(F)cn2c1C(=O)c1cc(Br)c(O)c(Br)c1 [Example 4, (3,5-dibromo-4-hydroxyphenyl)(2-ethyl-6-fluoroimidazo[1,2-a]pyrimidin-3-yl)methanone]
IC50, OAT3/IC50, hURAT1: 36.5

CCc1nc2ncc(Br)cn2c1C(=O)c1cc(Br)c(O)c(Br)c1 [Example 3, (6-bromo-2-ethylimidazo[1,2-a]pyrimidin-3-yl)(3,5-dibromo-4-hydroxyphenyl)methanone]
IC50, OAT3/IC50, hURAT1: 8.9

CCn1nc2ccncc2c1C(=O)c1cc(Br)c(O)c(Br)c1 [Example 16, (3,5-dibromo-4-hydroxyphenyl)(2-ethyl-2H-pyrazolo[4,3-c]pyridin-3-yl)methanone]
IC50, OAT3/IC50, hURAT1: 3.1
